In ChEMBL document CHEMBL1158147, “Ultraviolet-mediated cytotoxic activity of phenylheptatriyne from Bidens pilosa L” (J Nat Prod, 1979):
The source made the active and inactive calls.

Tests used:
Bacillus subtilis [1] = assay: Phototoxicity against Bacillus subtilis at 10 ug/disk in presence of long wave UV light; assay type: functional, organism-based
Bacillus subtilis [2] = assay: Phototoxicity against Bacillus subtilis at 10 ug/disk in dark; assay type: functional, organism-based
Kocuria rosea [3] = assay: Phototoxicity against Micrococcus roseus UBC 289 at 10 ug/disk in presence of long wave UV light; assay type: functional, organism-based
Kocuria rosea [4] = assay: Phototoxicity against Micrococcus roseus UBC 289 at 10 ug/disk in presence of cool-white fluorescent light; assay type: functional, organism-based
Kocuria rosea [5] = assay: Phototoxicity against Micrococcus roseus UBC 289 at 10 ug/disk in dark; assay type: functional, organism-based
[6] = test system: Staphylococcus epidermidis; assay: Phototoxicity against Staphylococcus albus at 10 ug/disk in presence of long wave UV light; assay type: functional, organism-based
[7] = test system: Staphylococcus epidermidis; assay: Phototoxicity against Staphylococcus albus at 10 ug/disk in presence of cool-white fluorescent light; assay type: functional, organism-based
[8] = test system: Staphylococcus epidermidis; assay: Phototoxicity against Staphylococcus albus at 10 ug/disk in dark; assay type: functional, organism-based
Enterococcus faecalis [9] = assay: Phototoxicity against Streptococcus faecalis at 10 ug/disk in presence of long wave UV light; assay type: functional, organism-based
Enterococcus faecalis [10] = assay: Phototoxicity against Streptococcus faecalis at 10 ug/disk in presence of cool-white fluorescent light; assay type: functional, organism-based
Enterococcus faecalis [11] = assay: Phototoxicity against Streptococcus faecalis at 10 ug/disk in dark; assay type: functional, organism-based
Escherichia coli [12] = assay: Phototoxicity against Escherichia coli at 10 ug/disk in presence of long wave UV light; assay type: functional, organism-based
Escherichia coli [13] = assay: Phototoxicity against Escherichia coli at 10 ug/disk in presence of cool-white fluorescent light; assay type: functional, organism-based
Escherichia coli [14] = assay: Phototoxicity against Escherichia coli at 10 ug/disk in dark; assay type: functional, organism-based
Proteus mirabilis [15] = assay: Phototoxicity against Proteus mirabilis UBC 5 at 10 ug/disk in presence of long wave UV light; assay type: functional, organism-based
Proteus mirabilis [16] = assay: Phototoxicity against Proteus mirabilis UBC 5 at 10 ug/disk in presence of cool-white fluorescent light; assay type: functional, organism-based
Proteus mirabilis [17] = assay: Phototoxicity against Proteus mirabilis UBC 5 at 10 ug/disk in dark; assay type: functional, organism-based
Pseudomonas fluorescens [18] = assay: Phototoxicity against Pseudomonas fluorescens at 10 ug/disk in presence of long wave UV light; assay type: functional, organism-based
Pseudomonas fluorescens [19] = assay: Phototoxicity against Pseudomonas fluorescens at 10 ug/disk in presence of cool-white fluorescent light; assay type: functional, organism-based
Pseudomonas fluorescens [20] = assay: Phototoxicity against Pseudomonas fluorescens at 10 ug/disk in dark; assay type: functional, organism-based
Candida albicans [21] = assay: Phototoxicity against Candida albicans at 10 ug/disk in presence of long wave UV light; assay type: functional, organism-based
Candida albicans [22] = assay: Phototoxicity against Candida albicans at 10 ug/disk in presence of cool-white fluorescent light; assay type: functional, organism-based
Candida albicans [23] = assay: Phototoxicity against Candida albicans at 10 ug/disk in dark; assay type: functional, organism-based
Rhodotorula mucilaginosa [24] = assay: Phototoxicity against Rhodotorula rubra Y96 at 10 ug/disk in presence of long wave UV light; assay type: functional, organism-based
Rhodotorula mucilaginosa [25] = assay: Phototoxicity against Rhodotorula rubra Y96 at 10 ug/disk in dark; assay type: functional, organism-based
Saccharomyces cerevisiae [26] = assay: Phototoxicity against Saccharomyces cerevisiae at 10 ug/disk in presence of long wave UV light; assay type: functional, organism-based
Saccharomyces cerevisiae [27] = assay: Phototoxicity against Saccharomyces cerevisiae at 10 ug/disk in presence of cool-white fluorescent light; assay type: functional, organism-based
Saccharomyces cerevisiae [28] = assay: Phototoxicity against Saccharomyces cerevisiae at 10 ug/disk in dark; assay type: functional, organism-based
Sporobolomyces [29] = assay: Phototoxicity against Sporobolomyces sp. Y138 at 10 ug/disk in presence of long wave UV light; assay type: functional, organism-based
Sporobolomyces [30] = assay: Phototoxicity against Sporobolomyces sp. Y138 at 10 ug/disk in presence of cool-white fluorescent light; assay type: functional, organism-based
Sporobolomyces [31] = assay: Phototoxicity against Sporobolomyces sp. Y138 at 10 ug/disk in dark; assay type: functional, organism-based
Torula [32] = assay: Phototoxicity against Torula sp. at 10 ug/disk in presence of long wave UV light; assay type: functional, organism-based
Torula [33] = assay: Phototoxicity against Torula sp. at 10 ug/disk in dark; assay type: functional, organism-based
Fusarium sp. [34] = assay: Phototoxicity against Fusarium sp. at 10 ug/disk in presence of long wave UV light; assay type: functional, organism-based
Fusarium sp. [35] = assay: Phototoxicity against Fusarium sp. at 10 ug/disk in presence of cool-white fluorescent light; assay type: functional, organism-based
Fusarium sp. [36] = assay: Phototoxicity against Fusarium sp. at 10 ug/disk in dark; assay type: functional, organism-based
Microsporum canis [37] = assay: Phototoxicity against Microsporum canis at 10 ug/disk in presence of long wave UV light; assay type: functional, organism-based
Microsporum canis [38] = assay: Phototoxicity against Microsporum canis at 10 ug/disk in presence of cool-white fluorescent light; assay type: functional, organism-based
Microsporum canis [39] = assay: Phototoxicity against Microsporum canis at 10 ug/disk in dark; assay type: functional, organism-based
Paraphyton cookei [40] = assay: Phototoxicity against Microsporum cookei at 10 ug/disk in presence of long wave UV light; assay type: functional, organism-based
Paraphyton cookei [41] = assay: Phototoxicity against Microsporum cookei at 10 ug/disk in presence of cool-white fluorescent light; assay type: functional, organism-based
Paraphyton cookei [42] = assay: Phototoxicity against Microsporum cookei at 10 ug/disk in dark; assay type: functional, organism-based
Nannizzia gypsea [43] = assay: Phototoxicity against Microsporum gypseum at 10 ug/disk in presence of long wave UV light; assay type: functional, organism-based
Nannizzia gypsea [44] = assay: Phototoxicity against Microsporum gypseum at 10 ug/disk in presence of cool-white fluorescent light; assay type: functional, organism-based
Nannizzia gypsea [45] = assay: Phototoxicity against Microsporum gypseum at 10 ug/disk in dark; assay type: functional, organism-based
[46] = test system: Trichophyton mentagrophytes; assay: Phototoxicity against Trichophyton mentagrophytes at 10 ug/disk in presence of long wave UV light; assay type: functional, organism-based
[47] = test system: Trichophyton mentagrophytes; assay: Phototoxicity against Trichophyton mentagrophytes at 10 ug/disk in presence of cool-white fluorescent light; assay type: functional, organism-based
[48] = test system: Trichophyton mentagrophytes; assay: Phototoxicity against Trichophyton mentagrophytes at 10 ug/disk in dark; assay type: functional, organism-based
Candida albicans [49] = assay: Phototoxicity against Candida albicans at 5 ug/disk after UV irradiation for 15 mins; assay type: functional; details: light or radiation study, 0.25 h, read-out: IZ
Candida albicans [50] = assay: Phototoxicity against Candida albicans at 5 ug/disk after UV irradiation for 30 mins; assay type: functional; details: light or radiation study, 0.5 h, read-out: IZ
Candida albicans [51] = assay: Phototoxicity against Candida albicans at 5 ug/disk after UV irradiation for 180 mins; assay type: functional; details: light or radiation study, 3 h, read-out: IZ
Saccharomyces cerevisiae [52] = assay: Phototoxicity against Saccharomyces cerevisiae at 5 ug/disk after UV irradiation for 15 mins; assay type: functional; details: light or radiation study, 0.25 h, read-out: IZ
Saccharomyces cerevisiae [53] = assay: Phototoxicity against Saccharomyces cerevisiae at 5 ug/disk after UV irradiation for 30 mins; assay type: functional; details: light or radiation study, 0.5 h, read-out: IZ
Saccharomyces cerevisiae [54] = assay: Phototoxicity against Saccharomyces cerevisiae at 5 ug/disk after UV irradiation for 180 mins; assay type: functional; details: light or radiation study, 3 h, read-out: IZ
DNA [55] = assay: Photochemical activity against denatured calf thymus DNA at 10 ug by hyperchromicity test; assay type: nucleic-acid assay; details: Bos taurus
DNA [56] = assay: Photochemical activity against denatured calf thymus DNA 10 ug after UV irradiation with 2.67 Joules/cm'2 for 30 mins at by hyperchromicity test; assay type: nucleic-acid assay; details: Bos taurus
DNA [57] = assay: Photochemical activity against denatured calf thymus DNA at 10 ug after UV irradiation with 5.33 Joules/cm'2 for 60 mins by hyperchromicity test; assay type: nucleic-acid assay; details: Bos taurus
DNA [58] = assay: Photochemical activity against denatured calf thymus DNA at 10 ug after UV irradiation with 10.67 Joules/cm'2 for 120 mins by hyperchromicity test; assay type: nucleic-acid assay; details: Bos taurus; note: unit not given here
DNA [59] = assay: Photochemical activity against denatured calf thymus DNA at 10 ug after UV irradiation with 16.00 Joules/cm'2 for 180 mins by hyperchromicity test; assay type: nucleic-acid assay; details: Bos taurus
DNA [60] = assay: Photochemical activity against denatured calf thymus DNA at 10 ug in dark by hyperchromicity test; assay type: nucleic-acid assay; details: Bos taurus; note: unit not given here
DNA [61] = assay: Photochemical activity against denatured calf thymus DNA at 10 ug in dark after 30 mins by hyperchromicity test; assay type: nucleic-acid assay; details: Bos taurus
DNA [62] = assay: Photochemical activity against denatured calf thymus DNA at 10 ug in dark after 60 mins by hyperchromicity test; assay type: nucleic-acid assay; details: Bos taurus; note: unit not given here
DNA [63] = assay: Photochemical activity against denatured calf thymus DNA at in dark after 120 mins by hyperchromicity test; assay type: nucleic-acid assay; details: Bos taurus; note: unit not given here
DNA [64] = assay: Photochemical activity against denatured calf thymus DNA at in dark after 180 mins by hyperchromicity test; assay type: nucleic-acid assay; details: Bos taurus

COc1c2occc2cc2ccc(=O)oc12 [METHOXSALEN]
15 mm: zone of inhibition at 5 µg/disc (Candida albicans [50])
20 mm: zone of inhibition at 5 µg/disc (Saccharomyces cerevisiae [54])
17 mm: zone of inhibition at 5 µg/disc (Candida albicans [51]) | zone of inhibition at 5 µg/disc (Saccharomyces cerevisiae [52])
inactive: Activity (Bacillus subtilis [2]) | Activity (Kocuria rosea [4]) | Activity (Kocuria rosea [5]) | Activity [8] | Activity (Enterococcus faecalis [10]) | Activity (Enterococcus faecalis [11]) | Activity (Escherichia coli [13]) | Activity (Escherichia coli [14]) | Activity (Proteus mirabilis [16]) | Activity (Proteus mirabilis [17]) | Activity (Pseudomonas fluorescens [18]) | Activity (Pseudomonas fluorescens [19]) | Activity (Pseudomonas fluorescens [20]) | Activity (Candida albicans [23]) | Activity (Rhodotorula mucilaginosa [25]) | Activity (Saccharomyces cerevisiae [28]) | Activity (Sporobolomyces [31]) | Activity (Torula [33]) | Activity (Fusarium sp. [35]) | Activity (Fusarium sp. [36]) | Activity (Microsporum canis [39]) | Activity (Paraphyton cookei [42]) | Activity (Nannizzia gypsea [45]) | Activity [47] | Activity [48]
0.17: Activity (DNA [58]) | Activity (DNA [60]) | Activity (DNA [61]) | Activity (DNA [62]) | Activity (DNA [63]) | Activity (DNA [64])
13 mm: zone of inhibition at 5 µg/disc (Candida albicans [49])
active: Activity (Bacillus subtilis [1]) | Activity (Kocuria rosea [3]) | Activity [6] | Activity [7] | Activity (Enterococcus faecalis [9]) | Activity (Escherichia coli [12]) | Activity (Proteus mirabilis [15]) | Activity (Candida albicans [21]) | Activity (Candida albicans [22]) | Activity (Rhodotorula mucilaginosa [24]) | Activity (Saccharomyces cerevisiae [26]) | Activity (Saccharomyces cerevisiae [27]) | Activity (Sporobolomyces [29]) | Activity (Sporobolomyces [30]) | Activity (Torula [32]) | Activity (Fusarium sp. [34]) | Activity (Microsporum canis [37]) | Activity (Microsporum canis [38]) | Activity (Paraphyton cookei [40]) | Activity (Paraphyton cookei [41]) | Activity (Nannizzia gypsea [43]) | Activity (Nannizzia gypsea [44]) | Activity [46]
18 mm: zone of inhibition at 5 µg/disc (Saccharomyces cerevisiae [53])
0.18: Activity (DNA [55]) | Activity (DNA [56]) | Activity (DNA [57]) | Activity (DNA [59])
